Test results published in patent US7662361B2, “Methods and compositions for modulating drug activity through telomere damage” (priority 1999, dated 2010).
Marks after values point to notes of the source that are not given here.

Legend:
[1] = system: FaDu cells; test: SRB assay of cell number, AZT and paclitaxel; assay type: cell-based, human; conditions: 24 hr
Description: In brief, cells were seeded onto 96-well plates. To avoid changes in drug concentration caused by excessive evaporation of medium in wells located at the edge of the plate only the inner wells in 96-well plates were used. The outer wells contained only tissue culture media to serve as blanks. At the end of drug treatment, the culture medium was removed from the wells by aspiration and the cells were then fixed by incubating with 0.2 ml 10% trichloroacetic acid at 4° C. for 1 hr, followed by five washes with distilled water. The plates were then air-dried after which SRB solution (0.05 ml of 0.4%) was added to stain cells for 10 min at room temperature. […] The amount of SRB was measured by absorbance at 490 nm using an EL 340 microplate biokinetics reader (Bio-Tek Instruments, Inc., Winooski, Vt.). The absorbance is proportional to the number of cells attached to the culture plate. […]
Drug activity evaluation. Agent effect was measured in three ways, i.e., enumeration of the number of cells that remained attached in culture flask, enumeration of the number of cells that detached from the growth surface, and by measuring changes in apoptosis. […] The remaining cell number after agent treatment was measured using the sulforhodamine B (SRB) assay. The drug-induced detachment of cells from the growth surface was determined by counting the attached and detached cells. […]

[2] = system: FaDu cells; test: SRB paclitaxel cytotoxicity in hTR antisense transfected cells; assay type: cell-based; conditions: Homo sapiens, +antisense + IPTG cells (IPTG 44 days), paclitaxel 96 hours, read-out: IC50 of paclitaxel, clone #1
Description: In vitro drug activity evaluation. Drug effect was measured in three ways, i.e., by enumerating the number of cells that remained attached in culture flask, by enumerating the number of cells that detached from the growth surface, and changes in levels of apoptosis. The first measurement represents the overall drug effect, i.e., the combination of cytostatic and cytotoxic effects, whereas the latter two measurements reflect the cytotoxic effect. The remaining cell number after drug treatment was measured using the sulforhodamine B (SRB) assay which stains for cellular protein (Skehan P et al. (1990) J Natl Cancer Inst 82:1107-1112).
In brief, cells were seeded onto 96-well plates. To avoid changes in drug concentration caused by excessive evaporation of medium in wells located at the edge of the plate only the inner wells in 96-well plates were used. The outer wells contained only tissue culture media to serve as blanks. […] The amount of SRB was measured by absorbance at 490 nm using an EL 340 microplate biokinetics reader (Bio-Tek Instruments, Inc., Winooski, Vt.). The absorbance is proportional to the number of cells attached to the culture plate. […]
Effect of hTR antisense on the cytotoxic effect of paclitaxel. […] The cytotoxic effect of paclitaxel was quantified using the SRB method which measures the total cellular proteins. […]

[3] = system: PC3 cells; test: Cell detachment from the growth surface; assay type: cell-based, human; conditions: 20 nM paclitaxel, end of 96-hr experiment
Description: (§1) Upon drug treatment, the supernatant along with two subsequent Versene rinses, which contained the detached cells, were collected. […] These samples were centrifuged at 1500 rpm for 10 min and the resulting cell pellets were resuspended in 2 ml of culture media. The cell number in the detached and attached fractions were counted using a Coulter counter (Coulter Electronic, Inc., Hialeah, Fla.).

[4] = Host toxicity (body weight, death) in xenograft-bearing mice; conditions: single agents
Description: (§2) The activity of paclitaxel, with or without AZT, was evaluated in immunodeficient mice (male Balb/c nu/nu mice, 6-8 weeks old) bearing the human pharynx FaDu xenografts. […] The saline control group received injections of 200 μl/day of physiological saline of five consecutive days. The paclitaxel group received injections of 10 mg/kg/day paclitaxel dissolved in Cremophor and ethanol (i.e., Taxol) in a volume of 200 μl for five consecutive days. The AZT group received a seven-day infusion of AZT at a rate of 200 ng/hr by a subcutaneously implanted Alzet minipump. […] Animal weights and tumor sizes were measured on days 1, 3, 6, 8, and 10 after initiation of the paclitaxel treatment.

[5] = system: FaDu cells; test: Externalization of phosphatidylserine (Annexin V); assay type: cell-based, human; conditions: 200 nM paclitaxel
Description: Externalization of phosphatidylserine. Apoptotic cells lose membrane phospholipid asymmetry and expose phosphatidylserine on the outer leaflet of plasma membrane. The externalized phosphatidylserine was labeled with Annexin V attached to a fluorescence probe FITC (green fluorescence), using the ApoAlert Annexin V assay (Clontech). As apoptosis progresses, propidium iodide penetrates the cell membrane and stains the cytoplasm (yellow-red stain). Briefly, cells were suspended in binding buffer, incubated with Annexin V-FITC and propidium iodide for 5-15 min in the dark, and examined by fluorescence microscopy. Cells labeled with FITC and/or propidium iodide were scored.

[6] = system: SKOV3 cells; test: TALA telomere length after paclitaxel treatment; assay type: cell-based, human; conditions: 200 nM paclitaxel
[7] = system: human pharynx FaDu xenografts; test: Antitumor effect in mice bearing FaDu xenografts
Description: as §2
The antitumor effect of the drug treatments was measured in three ways. The first was the reduction in tumor size. Tumor sizes were determined by first preparing a mold of the extruding tumor using Jeltrate, a rapidly setting molding material, and then preparing and weighing the countermold. Second, the apoptotic effect was measured. […] The tumor sections were evaluated morphologically for tumor cell density, and density of apoptotic cells. […] Third, the ability of drug treatment to prolong the survival time was measured. For this study, the animals were monitored for 100 days, or until moribundity, defined by a tumor length exceeding 1.0 cm, was reached.

[8] = system: telomerase activity in histocultures of FaDu xenograft tumors; test: TRAP telomerase activity in tumor histocultures; assay type: cell-based, human; conditions: 1 μM paclitaxel
Description: Histocultures of solid tumors. Histocultures are cultures of tumor fragments where the three dimensional structure and the heterogeneous tissue composition are maintained. […] Tumor specimens were washed three times with culture medium for three times and dissected into about 1 mm^3 fragments under sterile conditions. The culture medium for the FaDu histocultures was MEM supplemented with 9% heat-inactivated FBS, 2 mM glutamine, 90 μg/ml gentamicin and 90 μg/ml cefotaxime sodium.
For the preparation of cell and tissue extracts, cells and tissue were harvested, washed, and stored at −70° C. […] The protein concentration of the supernatant was determined using Bicinchoninic Acid Kit (Sigma, St Louis, Mo.). […] Samples with equal amounts of protein (1-2 μg) were analyzed by TRAP. […]
The template for the internal standard was amplified by PCR and purified by spin columns (QIAquick PCR purification kit, Qiagen, Valencia, Calif.). The concentration was determined by a spectrophotometer.
PCR was performed on the GeneAmp PCR system 2400 (Perkin Elmer) and initiated by 1 cycle at 94° C. for 3 min, 50° C. for 4 min, and 68° C. for 2 min, then 25 rounds at 94° C. for 30 sec, 50° C. for 30 sec, and 68° C. for 90 sec, followed by 68° C. for 10 min. […] The gel was then dried and the amplification products were detected.

[9] = system: FaDu cells; test: Cell detachment from the growth surface; assay type: cell-based, human; conditions: 200 nM paclitaxel, end of 48-hr treatment
Description: as §1
Treatment with the above agents was initiated after cells were allowed to attach to the growth surface in culture flasks. On the day of experiments, the culture medium was removed and replaced with drug-containing medium. […] For d4T, two concentrations, 20 μM and 40 μM were used.
Agent effect was measured in three ways, i.e., enumeration of the number of cells that remained attached in culture flask, enumeration of the number of cells that detached from the growth surface, and by measuring changes in apoptosis. […] The drug-induced detachment of cells from the growth surface was determined by counting the attached and detached cells.

[10] = system: solid tumors; conditions: Gan et al (1996); read-out: concentration that caused 50% cytotoxicity in solid tumors; cited from earlier work
[11] = mouse, in vivo
Description: as §2

## CC(=O)O[C@H]1C(=O)[C@@]2(C)[C@H]([C@H](OC(=O)c3ccccc3)[C@]3(O)C[C@H](OC(=O)[C@H](O)[C@@H](NC(=O)c4ccccc4)c4ccccc4)C(C)=C1C3(C)C)[C@]1(OC(C)=O)CO[C@@H]1C[C@@H]2O [paclitaxel]
[1]; Homo sapiens, FaDu, paclitaxel alone, up to 10 μM, read-out: maximum effect (reduction of cell number)
  Emax: 35%
[1]; paclitaxel alone 100 nM, fixed concentration method
  cell number: about 65 % of the control value
[2]
  IC50: 1.3 nM
[3]
  detached cell fraction: 68%
[4]
  toxicity-related death: no toxicity-related death
[5]; attached cells
  fraction labeled for externalized phosphatidylserine: 6-8%
[5]; detached cells
  time at which labeled fraction became significantly higher than untreated controls: 12 h
[5]; detached cells, 24 hr
  fraction labeled for externalized phosphatidylserine: 60%
[6]; 24 hr, compared to untreated controls
  shortening of telomeric length: 13%
[6]; 36 hr
  telomere shortening on extending treatment: did not produce a greater telomere shortening
[7]; Kaplan Meier analysis, monitored 100 days
  median time to reach moribundity: 42 days
[7]; of 12 animals
  tumor-free survivors: did not show tumor-free survivors
[8]
  time of peak telomerase activity: 12 h
[8]; 96 hr
  telomerase activity: about 50 % of the baseline level
[9]
  detached cell fraction: about 40%
[10]
  IC50: 1000 nM
[11]
  End-of-experiment body weight: 97∀6 ^a % of pretreatment value
  body weight loss compared to the pretreatment weight: < 3%
